The target in one experiment is T1, BTK kinase (Homo sapiens, UniProt Q06187).
T1 construct: purchased Invitrogen PV3363
Put plainly: BTK kinase activity inhibition assay (ADP-Glo). Format: biochemical. The conditions noted are these: ATP 50 μM. As to the method: The BTK kinase (purchased from Invitrogen, No.: PV3363) was diluted with reaction buffer (40 mM Tris-HCl, pH 7.5; 20 mM MgCl2, 0.1 mg/ml BSA; 1 mM DTT; 2 mM MnCl2) to 2 times of the final concentration (which is 1.1 ng/μL) and added with 5 μL/well to a 96-well plate. The compounds of the present invention were serial diluted with deionized water to four times (i.e., 40 μM, 4 μM, 0.4 μM, 80 nM, 16 nM, 3.2 nM, respectively) of the final concentrations (10 μM, 1 μM, 0.1 μM, 20 nM, 4 nM, 0.8 nM, respectively), and added at 2.5 μL/well to the test wells of the 96-well plate. After incubation at 25° C. for 10 minutes, ATP (50 μM) (purchased from Promega, No.: V9102) and 0.2 μg/μL of Poly E4Y1 (purchased from Sigma, No.: P0275-25MG) were added with 2.5 μL/well and incubated at 25° C. for 120 minutes. After the reaction was completed, 10 μL of the ADP-Glo reagent (ADP-Glo™ kinase assay kit, purchased from Promega, No.: V9102) was added to each well, and reacted at 25° C. for 40 minutes. Then 20 μL of the ADP-Glo kinase detection reagent was added to each well and reacted at 25° C. for 30 minutes. The kinase activity was detected by luminescence using the ADP-Glo kinase assay kit according to the manufacture's instruction, and IC50 values of the compounds of the present invention were calculated.

The next experiment concerns the target T2, JAK3 kinase (Homo sapiens, UniProt P52333).
T2 construct: purchased SignalChem J03-11G
The experiment in a line: JAK3 kinase activity inhibition assay (ADP-Glo). Type of experiment: biochemical. The settings on record: ATP 10 μM. How it is done: The JAK3 kinase (purchased from SignalChem, No.: J03-11G) was diluted with reaction buffer (40 mM Tris-HCl, pH 7.5; 20 mM MgCl2, 0.1 mg/ml BSA; 1 mM DTT) to 2 times of the final concentration (which is 0.5 ng/μL) and added with 5 μL/well to a 96-well plate. The compounds of the present invention were serial diluted with deionized water to four times (i.e., 40 μM, 4 μM, 0.4 μM, 80 nM, 16 nM, 3.2 nM, respectively) of the final concentrations (10 μM, 1 μM, 0.1 μM, 20 nM, 4 nM, 0.8 nM, respectively), and added with 2.5 μL/well to the test wells of the 96-well plate. After incubation at 25° C. for 10 minutes, 10 μM of ATP (purchased from Promega, No.: V9102) and 0.2 μg/μL of Poly E4Y1 (purchased from Sigma, No.: P0275-25MG) were added at 2.5 μL/well and reacted at 25° C. for 60 minutes. After the reaction was completed, 10 μL of the ADP-Glo reagent (ADP-Glo™ kinase assay kit, purchased from Promega, No.: V9102) was added to each well and reacted at 25° C. for 40 minutes. Then 20 μL of the ADP-Glo kinase detection reagent was added to each well and reacted at 25° C. for 30 minutes. The kinase activity was detected by luminescence using the ADP-Glo kinase assay kit according to the manufacture's instruction, and IC50 values of the compounds of the present invention were calculated.

The test system of a further experiment is CTLL-2 cells. The experiment in a line: IL-2 induced CTLL-2 cell proliferation assay (CCK-8). Type of experiment: cell-based. The conditions noted are these: Mus musculus, IL-2 induced proliferation, 24 hours. How it is done:
The compounds of the present invention were serial diluted with RPMI-1640 complete medium (purchased from Gibco, No.: 22440) to three times (i.e., 3 μM, 0.6 μM, 120 nM, 24 nM, 4.8 nM, 0.96 nM, respectively) of the final concentrations (1 μM, 0.2 μM, 40 nM, 8 nM, 1.6 nM, 0.32 nM, respectively), and added at 50 μL/well to the test wells of a 96-well plate. Control wells with IL-2 (referred to as IL-2^+) (IL-2 was purchased from R & D, No.: 402-ML-020/CF) and without IL-2 (referred to as IL-2^−) (with addition of 50 μL of the medium). CTLL-2 cells (purchased from ATCC, No.: TIB-214) at the logarithmic growth phase were rinsed with PBS buffer (pH 7.2), then resuspended in RPMI-1640 complete medium without IL-2, and seeded at 50000 cells/50 μL/well in the 96-well plate. The plate was placed at 37° C., 5% CO2 and pre-incubated for 1 hour. Then, to the test wells and the IL-2^+ control well RPMI-1640 complete medium containing IL-2 (50 μL/well) was added, while to the IL-2^− control well RPMI-1640 complete medium without IL-2 (50 μL/well) was added. The cells were stimulated for 24 hours at 37° C., 5% CO2. After this, the 96-well plate was taken out from the incubator. […] Absorption was determined at 450 nm of wavelength, and IC50 values of the compounds of the present invention were thereby calculated.

pIC50: −log10 of the molar value. Some results are limits rather than exact numbers.

T2 sequence (P52333 781-1124 limits assumed): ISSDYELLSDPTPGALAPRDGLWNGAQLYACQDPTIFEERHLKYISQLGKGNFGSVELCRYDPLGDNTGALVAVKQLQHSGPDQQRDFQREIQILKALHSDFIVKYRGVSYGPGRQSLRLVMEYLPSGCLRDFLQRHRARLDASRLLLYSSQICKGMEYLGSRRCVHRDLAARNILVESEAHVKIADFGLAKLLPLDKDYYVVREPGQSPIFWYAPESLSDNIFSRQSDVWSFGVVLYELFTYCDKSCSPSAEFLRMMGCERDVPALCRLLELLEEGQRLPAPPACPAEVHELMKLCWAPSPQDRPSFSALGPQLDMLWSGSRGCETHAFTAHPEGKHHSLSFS
T1 sequence (Q06187 whole entry): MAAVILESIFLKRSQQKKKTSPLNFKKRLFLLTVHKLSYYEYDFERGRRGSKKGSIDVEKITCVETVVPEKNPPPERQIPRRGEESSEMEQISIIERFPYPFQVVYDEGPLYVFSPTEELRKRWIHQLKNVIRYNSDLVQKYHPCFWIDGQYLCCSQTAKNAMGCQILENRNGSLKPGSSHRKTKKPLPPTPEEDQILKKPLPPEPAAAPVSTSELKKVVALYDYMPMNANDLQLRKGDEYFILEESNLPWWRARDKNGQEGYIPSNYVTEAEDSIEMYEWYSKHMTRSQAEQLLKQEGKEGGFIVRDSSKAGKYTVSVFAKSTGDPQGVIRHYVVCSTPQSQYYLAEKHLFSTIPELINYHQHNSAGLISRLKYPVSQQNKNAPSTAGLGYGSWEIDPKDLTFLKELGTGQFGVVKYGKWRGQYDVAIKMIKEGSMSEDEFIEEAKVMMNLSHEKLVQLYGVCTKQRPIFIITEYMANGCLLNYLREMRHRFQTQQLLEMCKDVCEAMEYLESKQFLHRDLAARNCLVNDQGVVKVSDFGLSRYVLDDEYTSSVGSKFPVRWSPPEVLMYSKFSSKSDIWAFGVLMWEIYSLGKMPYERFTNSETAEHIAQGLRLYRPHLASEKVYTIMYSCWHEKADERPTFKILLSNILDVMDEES

Regarding `C=CC(=O)N1CCC[C@@H](Nc2nc(Nc3cc(C)ns3)nn3cccc23)C1` [Example 134, (R)-1-(3-((2-((3-methyl-isothiazol-5-yl)amino)pyrrolo[2,1-f][1,2,4]triazin-4-yl)amino)piperidin-1-yl)prop-2-en-1-one], the results for the pIC50 against BTK kinase, on JAK3 kinase and in the experiment with CTLL-2 cells were at least 7.30, at least 8.00 and at least 7.00, respectively.
Turning to `C=CC(=O)N1CC[C@@H](Nc2nc(Nc3cc(C)ns3)nn3cccc23)C1` [Example 137], the pIC50 is at least 7.30 on BTK kinase, at least 8.00 at JAK3 kinase and 6.00 to 7.00 in the experiment on CTLL-2 cells.

In general, pIC50 refers to the negative decadic logarithm of the IC50, by convention in mol/L. Low values mean a large IC50, high ones a small IC50.

The values above are taken from US10273242B2, “Compound inhibiting activities of BTK and/or JAK3 kinases” (BEIJING HANMI PHARMACEUTICAL CO., LTD., priority 2013, dated 2019).
